Experimental data published in patent US10961200B2, “Small molecule inhibitors of lactate dehydrogenase and methods of use thereof” (THE UNITED STATES OF AMERICA, AS REPRESENTED BY THE …, priority 2014, dated 2021).
Like-named read-outs stand apart in the source and are kept apart here.

What was measured:
Human LDHA = Human LDHA (Homo sapiens (Human), UniProt P00338); experiment: human LDHA primary biochemical assay (resazurin/diaphorase coupled, fluorescence)
Excerpt: Test compounds were placed in a Greiner Bio-One (Monroe, N.C.) 1536-well black solid bottom assay plate. 200 millimolar (mM) Tris HCl, pH 7.4, 100 micromolar […] EDTA and 0.01% TWEEN-20™, final concentration, was used as the assay buffer. The LDHA reagent was 2 nanomolar (nM) Human LDHA (Meridian Life Science, Inc., Memphis, Tenn.), final concentration, in assay buffer.

MiaPaCa2 cells = experiment: cell-based HT lactate assay, colorimetric/fluorometric detection (inhibition of lactate production); conditions: class symbols, 0 to 3 pluses
Method: Cell-based HT Lactate assay is a miniaturized Biovision Lactate Colorimetric/Fluorometric Assay Kit (Cat #K607-100). The assay is roughly a 3.5 hour assay run in a 1536 plate format. Cell number optimization should be run for each cell line to achieve an optimal number in which lactate production equals roughly 90% of the standard curve range. Cell number per well optimization has been performed with the following cell lines: MiaPaCa2—500 cells/well, SNU398—500 cells/well, and P493—500 cells/well.
The lactate activity in Table 8 is represented by 0 to 3 pluses as follows: +++<1 μM; ++1-10 μM; +10-57 μM; and −>57 μM.

[1] = LDHA inhibitory activity, assay of Example 1, activity level classes
[2] = LDHA inhibitory activity, activity level based on IC50 (Table 7)

IC50 (MiaPaCa2 cells; Homo sapiens, MIA PaCa-2) [µM]	IC50 (Human LDHA; [2]) [µM]	SMILES	further results
10 to 57	–	NS(=O)(=O)c1ccc(Cc2c(-c3ccc(F)c(F)c3)nn(-c3nc(C(=O)O)cs3)c2I)cc1 [Compound 43, 2-(3-(3,4-difluorophenyl)-5-iodo-4-(4-sulfamoylbenzyl)-1H-pyrazol-1-yl)thiazole-4-carboxylic acid]	IC50 (Human LDHA; [1]): < 0.1 µM
> 57	–	NS(=O)(=O)c1ccc(Cc2c(-c3ccc(F)c(F)c3)nn(-c3nc(C(=O)O)cs3)c2O)cc1 [Compound 53, 2-(3-(3,4-difluorophenyl)-5-hydroxy-4-(4-sulfamoylbenzyl)-1H-pyrazol-1-yl)thiazole-4-carboxylic acid]	–
> 57	–	NS(=O)(=O)c1ccc(Cc2c(-c3cccc(-c4ccccc4)c3)nn(-c3nc(C(=O)O)cs3)c2O)cc1 [Compound 54, 2-(3-([1,1′-biphenyl]-3-yl)-5-hydroxy-4-(4-sulfamoylbenzyl)-1H-pyrazol-1-yl)thiazole-4-carboxylic acid]	–
1 to 10	–	NS(=O)(=O)c1ccc(Cc2c(-c3ccccc3)nn(-c3nc(C(=O)O)cs3)c2C#CC2CC2)cc1 [Compound 160, 2-(5-(cyclopropylethynyl)-3-phenyl-4-(4-sulfamoylbenzyl)-1H-pyrazol-1-yl)thiazole-4-carboxylic acid]	IC50 (Human LDHA; [1]): < 0.1 µM
< 1	–	NS(=O)(=O)c1ccc(Cc2c(-c3cccc(-c4ccccc4)c3)nn(-c3nc(C(=O)O)cs3)c2C2CC2)c(F)c1 [Compound 183, 2-(3-([1,1′-biphenyl]-3-yl)-5-cyclopropyl-4-(2-fluoro-4-sulfamoylbenzyl)-1H-pyrazol-1-yl)thiazole-4-carboxylic acid]	IC50 (Human LDHA; [1]): < 0.1 µM
< 1	–	NS(=O)(=O)c1ccc(Cc2c(-c3cccc(-c4ccccc4)c3)nn(-c3nc(C(=O)O)cs3)c2CCC2CC2)cc1 [Compound 203, 2-(3-([1,1′-biphenyl]-3-yl)-5-(2-cyclopropylethyl)-4-(4-sulfamoylbenzyl)-1H-pyrazol-1-yl)thiazole-4-carboxylic acid]	IC50 (Human LDHA; [1]): < 0.1 µM
1 to 10	–	NS(=O)(=O)c1ccc(Cc2c(C3CC3(F)F)nn(-c3nc(C(=O)O)cs3)c2-c2cccc(-c3ccccc3)c2)cc1 (stereo not drawn) [Compound 206, 2-(5-([1,1′-biphenyl]-3-yl)-3-(2,2-difluorocyclopropyl)-4-(4-sulfamoylbenzyl)-1H-pyrazol-1-yl)thiazole-4-carboxylic acid]	IC50 (Human LDHA; read-out: Inhibitory activity IC50): 1 to 57 µM
–	–	N[S+](=O)([O-])c1ccc(Cc2c(-c3cccc(-c4ccccc4)c3)nn(-c3nc(C(=O)O)cs3)c2CC2CC2)cc1 [Compound 276]	IC50 (MiaPaCa2 cells): < 1 µM
1 to 10	–	NS(=O)(=O)c1ccc(Cc2c(-c3ccc(F)c(OC4CC4)c3)nn(-c3nc(C(=O)O)cs3)c2CC2CC2)cc1F [Compound 471, 2-(3-(3-cydopropoxy-4-fluorophenyl)-5-(cyclopropylmethyl)-4-(3-fluoro-4-sulfamoylbenzyl)-1H-pyrazol-1-yl)thiazole-4-carboxylic acid]	–
1 to 10	–	NS(=O)(=O)c1ccc(Cc2c(-c3cccc(Nc4ccccc4)c3)nn(-c3nc(C(=O)O)cs3)c2CC2CC2)cc1 [Compound 485, 2-(5-(cyclopropylmethyl)-3-(3-(phenylamino)phenyl)-4-(4-sulfamoylbenzyl)-1H-pyrazol-1-yl)thiazole-4-carboxylic acid]	–
1 to 10	–	CC(C)Oc1cccc(-c2nn(-c3nc(C(=O)O)cs3)c(CC3CC3)c2Cc2ccc(S(N)(=O)=O)cc2)c1 [Compound 504, 2-(5-(cyclopropylmethyl)-3-(3-isopropoxyphenyl)-4-(4-sulfamoylbenzyl)-1H-pyrazol-1-yl)thiazole-4-carboxylic Acid]	–
–	< 0.1	COc1cccc(-c2cccc(-c3nn(-c4nc(C(=O)O)cs4)cc3Cc3ccc(S(N)(=O)=O)cc3)c2)c1 [Compound 521, 2-(3-(3′-methoxy-[1,1′-biphenyl]-3-yl)-4-(4-sulfamoylbenzyl)-1H-pyrazol-1-yl)thiazole-4-carboxylic acid]	–
–	0.1 to 1	NS(=O)(=O)c1ccc(Cc2cn(-c3nc(C(=O)O)cs3)nc2-c2cccc(-c3cccnc3)c2)cc1 [Compound 522, 2-(3-(3-(pyridin-3-yl)phenyl)-4-(4-sulfamoylbenzyl)-1H-pyrazol-1-yl)thiazole-4-carboxylic acid]	–
–	0.1 to 1	Nc1cccc(-c2cccc(-c3nn(-c4nc(C(=O)O)cs4)cc3Cc3ccc(S(N)(=O)=O)cc3)c2)c1 [Compound 524, 2-(3-(3′-amino-[1,1′-biphenyl]-3-yl)-4-(4-sulfamoylbenzyl)-1H-pyrazol-1-yl)thiazole-4-carboxylic acid]	–
–	1 to 57	NS(=O)(=O)c1ccc(Cc2c(CC3CC3)nn(-c3nc(C(=O)O)cs3)c2-c2cc(F)cc(-c3cccc(F)c3)c2)cc1 [Compound 525, 4-((3-(cyclopropylmethyl)-5-(3′,5-difluoro-[1,1′-biphenyl]-3-yl)-1-(4-((oxo-l3-methyl)-l3-oxidanyl)thiazol-2-yl)-1H-pyrazol-4-yl)methyl)benzenesulfonamide]	–
–	< 0.1	CC(C)=Cc1cc(-c2nn(-c3nc(C(=O)O)cs3)c(CC3CC3)c2Cc2ccc(S(N)(=O)=O)c(F)c2)ccc1F [Compound 530, 2-(5-(cyclopropylmethyl)-3-(4-fluoro-3-(2-methylprop-1-en-1-yl)phenyl)-4-(3-fluoro-4-sulfamoylbenzyl)-1H-pyrazol-1-yl)thiazole-4-carboxylic acid]	–
–	< 0.1	NS(=O)(=O)c1ccc(Cc2c(-c3ccc(F)c(/C=C/C4CC4)c3)nn(-c3nc(C(=O)O)cs3)c2CC2CC2)cc1F [Compound 532, (E)-2-(5-(cyclopropylmethyl)-3-(3-(2-cyclopropylvinyl)-4-fluorophenyl)-4-(3-fluoro-4-sulfamoylbenzyl)-1H-pyrazol-1-yl)thiazole-4-carboxylic acid]	–
–	< 0.1	C/C=C/c1cc(-c2nn(-c3nc(C(=O)O)cs3)c(CC3CC3)c2Cc2ccc(S(N)(=O)=O)c(F)c2)ccc1F [Compound 533, (E)-2-(5-(cyclopropylmethyl)-3-(4-fluoro-3-(prop-1-en-1-yl)phenyl)-4-(3-fluoro-4-sulfamoylbenzyl)-1H-pyrazol-1-yl)thiazole-4-carboxylic acid]	–
–	< 0.1	NS(=O)(=O)c1ccc(Cc2c(-c3ccc(F)c(/C=C/C4CCCC4)c3)nn(-c3nc(C(=O)O)cs3)c2CC2CC2)cc1F [Compound 535, (E)-2-(3-(3-(2-cyclopentylvinyl)-4-fluorophenyl)-5-(cyclopropylmethyl)-4-(3-fluoro-4-sulfamoylbenzyl)-1H-pyrazol-1-yl)thiazole-4-carboxylic acid]	–
–	> 57	CCOC(=O)c1csc(-n2nc(-c3ccc(F)c(C#CC4CCCC4)c3)c(Cc3cccc(S(N)(=O)=O)c3)c2CC2CC2)n1 [Compound 536, ethyl 2-(3-(3-(cyclopentylethynyl)-4-fluorophenyl)-5-(cyclopropylmethyl)-4-(3-sulfamoylbenzyl)-1H-pyrazol-1-yl)thiazole-4-carboxylate]	–
–	< 0.1	CC(C)CC#Cc1cc(-c2nn(-c3nc(C(=O)O)cs3)c(CC3CC3)c2Cc2ccc(S(N)(=O)=O)c(F)c2)ccc1F [Compound 538, 2-(5-(cyclopropylmethyl)-3-(4-fluoro-3-(4-methylpent-1-yn-1-yl)phenyl)-4-(3-fluoro-4-sulfamoylbenzyl)-1H-pyrazol-1-yl)thiazole-4-carboxylic acid]	–
–	< 0.1	CCCC#Cc1cc(-c2nn(-c3nc(C(=O)O)cs3)c(CC3CC3)c2Cc2ccc(S(N)(=O)=O)c(F)c2)ccc1F [Compound 539, 2-(5-(cyclopropylmethyl)-3-(4-fluoro-3-(pent-1-yn-1-yl)phenyl)-4-(3-fluoro-4-sulfamoylbenzyl)-1H-pyrazol-1-yl)thiazole-4-carboxylic acid]	–

SMILES	IC50 (MiaPaCa2 cells; Homo sapiens, MIA PaCa-2) [µM]	IC50 (Human LDHA; [2]) [µM]	further results
Cc1c(Cc2ccc(S(N)(=O)=O)cc2)c(-c2ccccc2)nn1-c1nc(C(=O)O)cs1 [Compound 47, 2-(5-methyl-3-phenyl-4-(4-sulfamoylbenzyl)-1H-pyrazol-1-yl)thiazole-4-carboxylic acid]	> 57	–	IC50 (Human LDHA; [1]): < 0.1 µM
Cc1ccc(-c2cc(-c3nn(-c4nc(C(=O)O)cs4)c(CC4CC4)c3Cc3ccc(S(N)(=O)=O)cc3F)ccc2F)cc1 [Compound 472, 2-(5-(cyclopropylmethyl)-3-(6-fluoro-4′-methyl-[1,1′-biphenyl]-3-yl)-4-(2-fluoro-4-sulfamoylbenzyl)-1H-pyrazol-1-yl)thiazole-4-carboxylic acid]	< 1	–	–
NS(=O)(=O)c1ccc(Cc2c(-c3cccc(OC4CCCC4)c3)nn(-c3nc(C(=O)O)cs3)c2CC2CC2)cc1 [Compound 477, 2-(3-(3-(cyclopentyloxy)phenyl)-5-(cyclopropylmethyl)-4-(4-sulfamoylbenzyl)-1H-pyrazol-1-yl)thiazole-4-carboxylic Acid]	< 1	–	–
C=C(C)c1cc(-c2nn(-c3nc(C(=O)O)cs3)c(CC3CC3)c2Cc2ccc(S(N)(=O)=O)c(F)c2)ccc1F [Compound 534, 2-(5-(cyclopropylmethyl)-3-(4-fluoro-3-(prop-1-en-2-yl)phenyl)-4-(3-fluoro-4-sulfamoylbenzyl)-1H-pyrazol-1-yl)thiazole-4-carboxylic acid]	–	< 0.1	–
CCCCC#Cc1cc(-c2nn(-c3nc(C(=O)O)cs3)c(CC3CC3)c2Cc2ccc(S(N)(=O)=O)c(F)c2)ccc1F [Compound 540, 2-(5-(cyclopropylmethyl)-3-(4-fluoro-3-(hex-1-yn-1-yl)phenyl)-4-(3-fluoro-4-sulfamoylbenzyl)-1H-pyrazol-1-yl)thiazole-4-carboxylic acid]	–	< 0.1	–
